From PubChem BioAssay (NCI) come the findings set out here.

Some test systems named below: 786-0 renal; SR leukemia; HL-60(TB) leukemia; U251 CNS; UACC-257 melanoma; T-47D breast; SF-539 CNS; COLO 205 colon; MCF7 breast; HT29 colon.
What all share (test): NCI tumour cell line growth inhibition, 48 h

Values joined by “and” are separate entries in the source; they are usually repeats but may differ in a detail not shown here. Identical values can stand only once.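 Cells were grown in 96-well plates and exposed to each compound for 48 hours at five concentrations; endpoints were interpolated linearly between bracketing concentrations, or set to the highest concentration if not reached. Abbreviation: GI50, concentration required for 50% inhibition of growth. TGI: concentration producing complete growth inhibition.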

For `COc1cc(C2CC(c3cccc(Br)c3)=NN2C(C)=O)cc(OC)c1OC` (centres undefined), the GI50 was 0.771 µM in the assay with 786-0 renal; 0.0402 µM in the assay with SR leukemia; 0.191 µM in the assay on HL-60(TB) leukemia; 0.454 µM with U251 CNS; 25.3 µM in the assay with UACC-257 melanoma; 0.372 µM with T-47D breast. The GI50 in the assay on SF-539 CNS is 0.265 µM; in the assay with COLO 205 colon, 0.256 µM; in the assay with MCF7 breast, 0.208 µM; with HT29 colon, 0.284 µM. The TGI in the assay with 786-0 renal is > 65.4 µM; in the assay with SR leukemia it was > 100 µM; in the assay with HL-60(TB) leukemia, 0.553 µM; with U251 CNS, 53.4 µM; in the assay on UACC-257 melanoma it was > 84.1 µM; with T-47D breast, 29.7 µM. Moreover, the TGI in the assay with SF-539 CNS came to 2.62 µM; in the assay with COLO 205 colon, 0.802 µM; in the assay on MCF7 breast, 27.1 µM; with HT29 colon it was 14.9 µM.
On to `CNC(=O)N(C)N=NCCCl`, for which the TGI with 786-0 renal, in the assay on SR leukemia, with HL-60(TB) leukemia, in the assay with U251 CNS, with UACC-257 melanoma and in the assay on T-47D breast was > 100 µM each time. The TGI in the assay with SF-539 CNS, in the assay on COLO 205 colon, in the assay on MCF7 breast and in the assay with HT29 colon was > 100 µM each time.
In the case of `O=C(O)C1C2C=CC(O2)C1C(=O)NCc1ccccn1` (centres undefined), the TGI in the assay with 786-0 renal, in the assay with SR leukemia, in the assay on HL-60(TB) leukemia, in the assay on U251 CNS, in the assay on UACC-257 melanoma and with T-47D breast was > 100 µM in each case. Moreover, the TGI in the assay with SF-539 CNS, in the assay on COLO 205 colon, in the assay on MCF7 breast and in the assay with HT29 colon was > 100 µM in each case.
`C=C(c1nc2ccc(Cl)cc2[nH]c1=O)C(O)c1ccc(C(O)C(=O)c2nc3ccc(Cl)cc3[nH]c2=O)cc1` (centres undefined): the TGI is > 100 µM with 786-0 renal; > 100 µM in the assay on SR leukemia; 41.8 µM in the assay with HL-60(TB) leukemia; > 100 µM in the assay on U251 CNS; > 100 µM with UACC-257 melanoma; > 100 µM with T-47D breast. Further, the TGI in the assay on SF-539 CNS, with COLO 205 colon, in the assay with MCF7 breast and in the assay with HT29 colon was > 100 µM throughout.
Consider `O=C1c2cccc(NCCCNCCO)c2C(=O)c2cccc(NCCCNCCO)c21`, for which the TGI with 786-0 renal was 10.1 µM and 5.84 µM; in the assay on SR leukemia it was 6.25 µM and 7.33 µM; with HL-60(TB) leukemia it was 3.86 µM and 6.02 µM; in the assay with U251 CNS, 2.13 µM and 4.46 µM; in the assay with UACC-257 melanoma it was 11.2 µM and 14 µM; with T-47D breast, 8.89 µM. In addition, the TGI in the assay on SF-539 CNS was 4.13 µM and 2.84 µM; in the assay on COLO 205 colon, 2.67 µM and 3.78 µM; in the assay with MCF7 breast, 1.41 µM; in the assay on HT29 colon it was 4.43 µM and 5.38 µM. In addition, the GI50 in the assay with SR leukemia was 2.56 µM and 0.532 µM; in the assay on U251 CNS it was 0.536 µM and 1.4 µM.
In the case of `COc1ccc(C(C)=O)cc1N1C(=O)C2C(C1=O)C1(c3ccccc3)C(=O)C2(c2ccccc2)C(c2ccc(C)cc2)=C1c1ccc(C)cc1` (centres undefined), the GI50 in the assay on 786-0 renal, with SR leukemia, in the assay with HL-60(TB) leukemia, with U251 CNS, in the assay with UACC-257 melanoma and with T-47D breast was > 100 µM each time. Further, the GI50 in the assay on SF-539 CNS, in the assay with COLO 205 colon, with MCF7 breast and with HT29 colon was > 100 µM each time. The TGI with 786-0 renal, in the assay on SR leukemia, with HL-60(TB) leukemia, in the assay on U251 CNS, in the assay on UACC-257 melanoma and in the assay on T-47D breast was > 100 µM each time. Further, the TGI in the assay on SF-539 CNS, in the assay on COLO 205 colon, in the assay with MCF7 breast and in the assay with HT29 colon was > 100 µM each time.
With `N#Cc1c(NN)n(C2OC(CO)C(O)C2O)c2ncnc(N)c12` (centres undefined), the GI50 in the assay with 786-0 renal is 0.228 µM; in the assay on SR leukemia, 0.0272 µM; in the assay with HL-60(TB) leukemia, 0.022 µM; with U251 CNS, 0.0919 µM; with UACC-257 melanoma it was 0.267 µM; with T-47D breast it was 0.0191 µM. In addition, the figures for the GI50 in the assay with SF-539 CNS, in the assay with MCF7 breast and in the assay on HT29 colon were 0.337 µM, 0.0315 µM and 0.0351 µM, respectively. The TGI with 786-0 renal was 4.77 µM; in the assay with SR leukemia, 0.0815 µM; in the assay on HL-60(TB) leukemia, 0.109 µM; in the assay on U251 CNS it was > 100 µM; with UACC-257 melanoma, 1.66 µM; in the assay with T-47D breast, 0.118 µM. In addition, the figures for the TGI with SF-539 CNS, in the assay on COLO 205 colon and in the assay on MCF7 breast were 1.48 µM, 0.0424 µM and 2.87 µM, respectively.
Take `Clc1nc2ccccc2nc1CI`: the GI50 is 3.95 µM with 786-0 renal; 0.638 µM in the assay with SR leukemia; 2.86 µM in the assay on HL-60(TB) leukemia; 7.38 µM in the assay with U251 CNS; 12.9 µM in the assay with UACC-257 melanoma; 2.5 µM with T-47D breast. The GI50 in the assay on SF-539 CNS is 2.34 µM; in the assay on COLO 205 colon, 2.17 µM; in the assay on MCF7 breast, 2.79 µM; in the assay on HT29 colon, 3.93 µM. The TGI was 13.8 µM in the assay with 786-0 renal; 18.2 µM with HL-60(TB) leukemia; 20.8 µM in the assay on U251 CNS; 26.2 µM in the assay with UACC-257 melanoma; 6.76 µM in the assay on T-47D breast; 6.27 µM with SF-539 CNS. The TGI with COLO 205 colon was found to be 4.06 µM; with MCF7 breast, 11.9 µM; in the assay on HT29 colon, 13.5 µM.
For the molecule `CN(C)N=Nc1ccc(NC=O)cc1`, the TGI with 786-0 renal, with SR leukemia, in the assay with HL-60(TB) leukemia, in the assay with U251 CNS, in the assay on UACC-257 melanoma and in the assay with T-47D breast was > 100 µM each time. Besides, the TGI in the assay on SF-539 CNS, in the assay with COLO 205 colon, in the assay with MCF7 breast and in the assay on HT29 colon was > 100 µM in each case.
As to `N#CC(=C1C=CC(=NO)C=C1)c1ccccc1`, the GI50 with 786-0 renal was 1.69 µM; in the assay with SR leukemia, 0.349 µM; in the assay on HL-60(TB) leukemia it was 1.19 µM; with U251 CNS it was 1.45 µM; with UACC-257 melanoma, 2.12 µM; in the assay with T-47D breast it was 0.47 µM. For the same molecule, the GI50 in the assay with SF-539 CNS was 0.92 µM; in the assay with COLO 205 colon, 6.33 µM; in the assay on MCF7 breast, 0.319 µM; in the assay on HT29 colon, 2.16 µM. The TGI in the assay with 786-0 renal is 9.91 µM; with SR leukemia it was 3.73 µM; with HL-60(TB) leukemia it was 4.1 µM; with U251 CNS, 8.72 µM; in the assay on UACC-257 melanoma, 17.8 µM; in the assay on T-47D breast, 2.99 µM. Besides, the TGI with SF-539 CNS turned out to be 3.37 µM; in the assay with COLO 205 colon, 18.5 µM; in the assay on MCF7 breast it was 11.6 µM; in the assay with HT29 colon, 6.69 µM.
